Source: the supplement of paper PMC10307832

Columns and labels:
Assay in all cases: relative viability (nuclei count vs DMSO), 5 days (fraction); higher = more cells survive
17-AAG + Navitoclax = compound: C=CCNC1=C2C[C@@H](C)C[C@H](OC)[C@H](O)[C@@H](C)/C=C(\C)[C@H](OC(N)=O)[C@@H](OC)/C=C\C=C(/C)C(=O)NC(=CC1=O)C2=O [17-AAG] + CC1(C)CCC(c2ccc(Cl)cc2)=C(CN2CCN(c3ccc(C(=O)NS(=O)(=O)c4ccc(N[C@H](CCN5CCOCC5)CSc5ccccc5)c(S(=O)(=O)C(F)(F)F)c4)cc3)CC2)C1 [Navitoclax] (partner 0.5 µM)
Procedure, shortened: (§1)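 Nuclei were stained with Hoechst during a one-step fixation (final 0.05% Triton X-100, 1% formaldehyde, 1 ug/ml Hoechst) carried out 5 days after dosing, then counted on 4× images. The cells, lung cancer lines in 1536-well plates, had been dosed by pin tool the day after seeding with one drug alone or a fixed anchor-drug dose plus five library-drug doses (not always all listed) in √10 steps. Relative viability is the nuclei count in treated wells divided by that in vehicle wells, and each value is the median of duplicate plates.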

17-AAG + Linsitinib = compound: C=CCNC1=C2C[C@@H](C)C[C@H](OC)[C@H](O)[C@@H](C)/C=C(\C)[C@H](OC(N)=O)[C@@H](OC)/C=C\C=C(/C)C(=O)NC(=CC1=O)C2=O [17-AAG] + C[C@]1(O)C[C@@H](c2nc(-c3ccc4ccc(-c5ccccc5)nc4c3)c3c(N)nccn32)C1 [Linsitinib] (partner 1 µM)
Procedure, shortened: as §1

17-AAG + Alpelisib = compound: C=CCNC1=C2C[C@@H](C)C[C@H](OC)[C@H](O)[C@@H](C)/C=C(\C)[C@H](OC(N)=O)[C@@H](OC)/C=C\C=C(/C)C(=O)NC(=CC1=O)C2=O [17-AAG] + Cc1nc(NC(=O)N2CCC[C@H]2C(N)=O)sc1-c1ccnc(C(C)(C)C(F)(F)F)c1 [Alpelisib] (partner 2 µM)
Procedure, shortened: as §1

17-AAG + Vorinostat = compound: C=CCNC1=C2C[C@@H](C)C[C@H](OC)[C@H](O)[C@@H](C)/C=C(\C)[C@H](OC(N)=O)[C@@H](OC)/C=C\C=C(/C)C(=O)NC(=CC1=O)C2=O [17-AAG] + O=C(CCCCCCC(=O)Nc1ccccc1)NO [Vorinostat] (partner 1 µM)
Procedure, shortened: as §1

Row | Cell Line | relative viability (17-AAG + Navitoclax; first compound 0.00128 µM) | relative viability (17-AAG + Navitoclax; first compound 0.004048 µM) | relative viability (17-AAG + Navitoclax; first compound 0.0128 µM) | relative viability (17-AAG + Navitoclax; first compound 0.04048 µM) | relative viability (17-AAG + Navitoclax; first compound 0.128 µM) | relative viability (17-AAG + Linsitinib; first compound 0.00128 µM) | relative viability (17-AAG + Linsitinib; first compound 0.004048 µM) | relative viability (17-AAG + Linsitinib; first compound 0.0128 µM) | relative viability (17-AAG + Linsitinib; first compound 0.04048 µM) | relative viability (17-AAG + Linsitinib; first compound 0.128 µM) | relative viability (17-AAG + Alpelisib; first compound 0.00128 µM) | relative viability (17-AAG + Alpelisib; first compound 0.004048 µM) | relative viability (17-AAG + Alpelisib; first compound 0.0128 µM) | relative viability (17-AAG + Alpelisib; first compound 0.04048 µM) | relative viability (17-AAG + Alpelisib; first compound 0.128 µM) | relative viability (17-AAG + Vorinostat; first compound 0.00128 µM) | relative viability (17-AAG + Vorinostat; first compound 0.004048 µM) | relative viability (17-AAG + Vorinostat; first compound 0.0128 µM) | relative viability (17-AAG + Vorinostat; first compound 0.04048 µM) | relative viability (17-AAG + Vorinostat; first compound 0.128 µM)
1 | NCI-H1755 | 1.01 | 1 | 0.957 | 0.8 | 0.315 | 1.03 | 1.01 | 0.934 | 0.825 | 0.39 | 0.957 | 0.945 | 0.891 | 0.652 | 0.254 | 0.815 | 0.735 | 0.712 | 0.589 | 0.243
2 | NCI-H1437 | 1.11 | 0.939 | 0.936 | 0.162 | 0.132 | 0.995 | 0.788 | 0.787 | 0.128 | 0.112 | 0.959 | 0.929 | 0.88 | 0.107 | 0.122 | 0.83 | 0.77 | 0.731 | 0.328 | 0.235
3 | NCI-H2085 | 1.08 | 1.11 | 1.18 | 1.11 | 0.808 | 0.9 | 0.844 | 1.02 | 0.849 | 0.533 | 0.825 | 1 | 0.934 | 0.852 | 0.671 | 0.787 | 0.809 | 0.861 | 0.665 | 0.599
4 | IA-LM | 0.901 | 0.784 | 0.757 | 0.237 | 0.0731 | 0.551 | 0.667 | 0.599 | 0.177 | 0.102 | 0.719 | 0.813 | 0.657 | 0.303 | 0.105 | 0.911 | 1.02 | 0.927 | 0.819 | 0.823
5 | H3255 | 0.489 | 0.66 | 0.547 | 0.0858 | 0.107 | 0.953 | 1.01 | 0.798 | 0.201 | 0.188 | 0.672 | 0.716 | 0.498 | 0.26 | 0.154 | 0.898 | 0.864 | 0.82 | 0.282 | 0.292
